Laboratory results: patent publication US20140193827A1 (TEVA PHARMACEUTICAL INDUSTRIES, LTD., priority 2013, published 2014)

Experiments:
[1] = system: GA-primed murine splenocytes; experiment: Microarray gene expression profiling of GA-primed splenocytes reactivated ex vivo (t-test / 1-way ANOVA vs. Medium or GA-RS); format: cell-based, mouse
Source text: All experimental procedures conformed to accepted ethical standards for use of animals in research and were in accordance with Committee for the Care and Use of Experimental Animals guidelines and approved by the Teva Institutional Animal Care and Use Committee. For these experiments, we purchased 8- to 12-week old female (Balb/c×SJL)F1 mice (Harlan, Israel). […] Single cell suspension was prepared. […] Splenocytes (125 μL 10×10^6 SPL cell/mL suspension) were added to the activator solutions and incubated for 24 hours at 37° C. Then, cells were washed, diluted with RNA stabilization solution (RNAlater® solution, Applied Biosystems), and stored at 4° C. […] RNA quality was assessed by the absorbance ratio at 260/280 on and gel electrophoresis (Experion™, Bio-Rad, Hercules, Calif.). […] Microarray hybridization, array scanning, and initial preprocessing were performed by BioRap (Technion, Haifa, Israel). […] The subsequent bioinformatics analyses were conducted in the Bioinformatics Core Facility of the National Institute for Biotechnology in the Negev, Ltd. (NIBN, Beer-Sheva, Israel). Summarization of bead-level data to gene-level signals was performed using the R package “beadarray” (45) after removal of outliers greater than 3 median absolute deviations (MADs). Between-sample quantile normalization was performed using Partek Genomics Suite (Partek, Inc., St. Louis, Missouri), followed by correction of experimental batch effects (i.e., related to differences in dates of RNA extraction and array processing) using the Partek Batch Remover™ tool. […] Fold change values were presented in linear scale. […] RNA was extracted and full gene expression analysis was preformed.

[2] = system: GA-primed murine splenocytes; experiment: Functional gene expression analysis (Ingenuity Pathways Analysis: biological functions, canonical pathways); parameters: species or system mouse; details: vs. Medium
Protocol: To identify the leading biological mechanisms associated with genes induced in splenocytes by glatiramoids, gene functional annotation, enrichment, and pathway analyses were performed by Ingenuity Pathways Analysis (IPA) Suite (www.ingenuity.com). The program integrates data from various experimental platforms and primary literature sources to provide insight into molecular interactions, cellular phenotypes, and disease processes, and then predicts downstream biological effects of gene transcription changes. IPA web software was also used to reconstruct regulatory genes and transcriptional factors functional networks. A significance score (using the right-tailed Fisher's exact test and expressed as a p value) for each process is calculated as the number of gene transcripts that participate in a network or pathway relative to the total number of these genes in all functional/pathway annotations stored in the IPA database. All p values were applied for multiple testing corrections using Benjamini-Hochberg FDR method with a cut off at p =0.05.

[3] = system: GA-primed murine splenocytes; experiment: Differentially expressed genes GA vs PG by multiple parametric tests (ANOVA, LIMMA with background subtraction, comparative marker selection SNR and t-test); format: cell-based, mouse
Protocol: The experimental design, data collection, and pre-processing steps have been previously described. […] After 3 days the mice were sacrificed, their splenocytes were isolated, and these splenocytes were mixed with activator solutions for 24 hours. […] Then the RNA was extracted and gene expression characterized by microarray using an Illumine WG-6_V2 chip. Illumina's BeadStudio software was utilized for image processing, quantification of signal intensity per bead, and background signal correction. The microarray data have been deposited in the Gene Expression Omnibus, under accession number GSE40566.
We then corrected for batch variation with ComBat (30) as implemented in the SVA package of R (62). Each microarray's chip designation was supplied a batch label; there were 18 batches in all. The labels for the treatments (i.e. drug product, reference standard . . . ) were added as covariates.
First, we computed the statistical significance of differential expression between treatments using the Analysis of Variance (ANOVA) method for each probe (65), adjusting for multiple hypothesis testing using the Benjamini-Hochberg False Discovery Rate (FDR) correction (66). […] The coefficients for the linear model were tested for significance using a modified t-test (taking into account standard deviation) and the p-values for each probe were adjusted using FDR. […] We applied two separate techniques within this framework; a traditional T-test and a Signal-to-Noise Ratio test (SNR). For each of these two tests, we adjusted the nominal p-values via FDR. For all four tests described, we used an adjusted threshold that was less than or equal to 0.05.

[4] = system: GA-primed murine splenocytes; experiment: Non-parametric Wilcoxon rank sum test GA vs PG; format: cell-based, mouse
Source text: Nominal p-values were FDR adjusted and only probes that were less than or equal to 0.05 were considered.

glatiramer acetate [GA]
genes up- or down-regulated compared to medium ([1]; FDR-adjusted p value <0.05, fold change of 1.3 or more): 1474 genes | FOXP3 expression ([1]; vs. Medium): over-expressed | Fold Change CD40 ([1]; vs. Medium): 1.533 | Fold Change CD86 ([1]; vs. Medium): 1.365 | Fold Change FOXP3 ([1]; vs. Medium): 1.406 | Fold Change GATA3 ([1]; vs. Medium): 1.877 | Fold Change HLA-DMA ([1]; vs. Medium): 1.534 | Fold Change HLA-DMB ([1]; vs. Medium): 1.398 | Fold Change ICOS ([1]; vs. Medium): 2.164 | Fold Change IFNG ([1]; vs. Medium): 16.847 | Fold Change IFNGR2 ([1]; vs. Medium): −1.333 | Fold Change IL2 ([1]; vs. Medium): 2.074 | Fold Change IL2RA ([1]; vs. Medium): 2.457 | Fold Change IL2RG ([1]; vs. Medium): −1.386 | Fold Change IL4 ([1]; vs. Medium): 4.428 | Fold Change IL4R ([1]; vs. Medium): 1.578 | Fold Change IL6R ([1]; vs. Medium): −1.545 | Fold Change IL10RB ([1]; vs. Medium): −1.323 | Fold Change IL12RB1 ([1]; vs. Medium): 2.270 | Fold Change IL13 ([1]; vs. Medium): 1.330 | Fold Change IL17A ([1]; vs. Medium): 1.451 | Fold Change IL17F ([1]; vs. Medium): 2.365 | Fold Change IL18 ([1]; vs. Medium): −1.383 | Fold Change IL18R1 ([1]; vs. Medium): −1.726 | Fold Change TBX21 ([1]; vs. Medium): 2.654 | Fold Change TGFBR2 ([1]; vs. Medium): −1.436 | Fold Change TNF ([1]; vs. Medium): 1.475 | Response, Activation of T lymphocytes [2]: Upregulated | Response, Activation of antigen presenting cells [2]: Upregulated | Response, Activation of lymphocytes [2]: Upregulated | Response, Activation of mononuclear leukocytes [2]: Upregulated | Response, Activation of phagocytes [2]: Upregulated | Response, Development of hematopoietic progenitor cells [2]: Down-regulated | Response, Differentiation of effector T lymphocytes [2]: Upregulated | Response, Differentiation of naive lymphocytes [2]: No change | Response, Expansion of lymphocytes [2]: No change | Response, Expansion of mononuclear leukocytes [2]: No change | Response, Immune response of antigen presenting cells [2]: Upregulated | Response, Proliferation of B lymphocytes [2]: Upregulated | Response, Proliferation of T lymphocytes [2]: No change | Response, Proliferation of hematopoietic cell lines [2]: Upregulated | Response, Proliferation of immune cells [2]: Upregulated | Response, Proliferation of lymphocytes [2]: Upregulated | Response, Quantity of cytotoxic T cells [2]: Down-regulated | Response, Stimulation of antigen presenting cells [2]: Upregulated | Response, Stimulation of macrophages [2]: Upregulated | Response, Suppression of T lymphocytes [2]: Upregulated | FOXP3 expression, GA vs PG [3]: significantly higher expression | GPR83 expression, GA vs PG [3]: significantly higher levels of expression | IFNG expression, GA compared to PG ([3]; probes ranked #1 and #3 by fold change): upregulated dramatically | CD40 expression, GA vs PG [4]: significantly lower expression
